Patent US20110172217A1, “RING-FUSED MORPHOLINE DERIVATIVE HAVING PI3K-INHIBITING ACTIVITY” (Shionogi & Co., Ltd., priority 2008, published 2011)

Columns and labels:
[1] = molecular target: T1, human ether-a-go-go related gene (hERG) channel (Homo sapiens, UniProt Q12809); assay: hERG test, whole-cell patch-clamp, IKr; type: cell-based; conditions: 1 μmol/L compound; HEK293 cell expressing hERG
T1 construct: expressed in transfected cells; host or cells: HEK293
Text: For the purpose of risk evaluation of QT interval extension of electrocardiogram, the activity on delayed rectification K^+ current (IKr), which plays an important role in a cardiac ventricle repolarization process, was examined using the HEK293 cell that was made to express human ether-a-go-go related gene (hERG) channel.
Using an automatic patch-clamp system (PatchXpress 7000A, Axon Instruments Inc.), by a whole-cell patch-clamp method, after the cell was maintained at a membrane potential of −80 mV, IKr induced upon applying depolarizing stimulation of +50 mV for 2 seconds and further applying repolarizing stimulation of −50 mV for 2 seconds was recorded. After generated electric current became stable, a test substance dissolved at an intended concentration in extracellular fluid (137 mmol/L NaCl, 4 mmol/L KCl, 1.8 mmol/L CaCl2.2H2O, 1 mmol/L MgCl2.6H2O, 10 mmol/L glucose, 10 mmol/L HEPES (4-(2-hydroxyethyl)-1-piperazineethanesulfonic acid), pH=7.4) was applied to the cell for 10 minutes under room temperature condition. From the obtained IKr, the absolute value of the maximum tail current was measured using analysis software (DataXpress ver. 1, Molecular Devices Corporation) and the value of the electric current in a maintained membrane potential as baseline. Moreover, an inhibition ratio for the maximum tail current prior to the application of the test substance was calculated and then compared with a group of media-application (0.1% dimethylsulfoxide solution) to evaluate influence of the test substance on IKr.

[2] = Solubility test in artificial intestinal juice pH 6.8; type: physicochemical; conditions: kinetic from dmso stock, artificial intestinal juice pH 6.8, 1% DMSO, 25° C.
Method: The solubility of a compound was determined under a condition in which 1% DMSO was added. 10 mmol/L compound solution was prepared using DMSO, and then 6 μL of the compound solution was added to 594 μL of artificial intestinal juice in pH 6.8 (to 250 mL of 0.2 mol/L potassium dihydrogen phosphate reagent solution was added 118 mL of 0.2 mol/L NaOH reagent solution and water to provide a final volume of 1000 mL). After standing at 25° C. for 16 hours, the mixed solution was filtered with suction. The filtrate was diluted twice with methanol/water (1/1), and then a concentration in the filtration was measured with HPLC or LC/MS/MS by the absolute calibration method.

T1 sequence (Q12809 whole entry): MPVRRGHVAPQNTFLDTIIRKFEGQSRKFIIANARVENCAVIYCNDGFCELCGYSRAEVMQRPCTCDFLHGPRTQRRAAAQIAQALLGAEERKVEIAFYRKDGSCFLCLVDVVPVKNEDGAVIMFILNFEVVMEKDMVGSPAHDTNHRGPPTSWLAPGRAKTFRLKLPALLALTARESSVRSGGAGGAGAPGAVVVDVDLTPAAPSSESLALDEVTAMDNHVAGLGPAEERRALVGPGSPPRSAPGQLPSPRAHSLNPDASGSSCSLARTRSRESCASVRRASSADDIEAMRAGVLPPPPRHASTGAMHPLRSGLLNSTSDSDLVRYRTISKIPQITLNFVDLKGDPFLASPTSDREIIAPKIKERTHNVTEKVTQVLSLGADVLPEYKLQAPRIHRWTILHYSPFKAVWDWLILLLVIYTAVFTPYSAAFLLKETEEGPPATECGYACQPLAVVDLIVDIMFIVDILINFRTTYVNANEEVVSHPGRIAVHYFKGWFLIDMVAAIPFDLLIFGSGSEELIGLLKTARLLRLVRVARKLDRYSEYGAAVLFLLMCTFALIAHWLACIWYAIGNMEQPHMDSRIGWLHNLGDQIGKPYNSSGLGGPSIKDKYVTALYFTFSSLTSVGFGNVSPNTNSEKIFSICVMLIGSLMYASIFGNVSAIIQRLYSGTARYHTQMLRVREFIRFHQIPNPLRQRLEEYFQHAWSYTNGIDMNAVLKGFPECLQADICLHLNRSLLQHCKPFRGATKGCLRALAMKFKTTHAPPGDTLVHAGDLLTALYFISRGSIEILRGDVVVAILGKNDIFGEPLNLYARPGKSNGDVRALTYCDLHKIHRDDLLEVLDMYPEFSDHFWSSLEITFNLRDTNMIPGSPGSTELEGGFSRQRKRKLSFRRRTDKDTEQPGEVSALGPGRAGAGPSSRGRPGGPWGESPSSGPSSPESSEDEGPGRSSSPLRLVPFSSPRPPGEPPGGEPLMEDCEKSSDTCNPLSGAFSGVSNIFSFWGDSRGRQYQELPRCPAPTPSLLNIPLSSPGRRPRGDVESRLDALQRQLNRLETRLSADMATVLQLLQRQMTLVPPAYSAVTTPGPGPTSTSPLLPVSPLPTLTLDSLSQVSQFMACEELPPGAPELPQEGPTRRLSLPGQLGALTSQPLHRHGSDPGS

Row | solubility at 16 h [2] | SMILES | hERG inhibition ratio for the maximum tail current (IKr) [1]
1 |  | O=C(O)c1ccccc1Nc1ccc2c(n1)N(C(=O)Nc1ccccc1)CCO2 [Compound I-145] | 15%
2 | > 50 µM | O=C(O)COc1cccc(Nc2ccc3c(n2)N(C(=O)Nc2ccccc2)CCO3)c1 [Compound I-240] | 
